Laboratory results from ChEMBL document CHEMBL5380818, “BAY-6096: A Potent, Selective, and Highly Water-Soluble Adrenergic α2B Antagonist” (J Med Chem, 2023).
pIC50: −log10 of the molar value. In brackets after ≈: the same amount, converted by molar mass.

Key:
[1] = Mutagenecity in Salmonella typhimurium in presence of s9 fraction by Ames test; assay type: toxicity, subcellular; conditions: salmonella enterica subsp. enterica serovar typhimurium
[2] = Solubility of the compound in pH 7 shaken for 24 hrs; assay type: physicochemical; conditions: buffer
[3] = Metabolic stability in cryopreserved human liver hepatocytes at 10 uM incubated upto 4 hrs by LC/MS/MS analysis; assay type: ADME, cell-based, Hepatocyte
[4] = Chemical stability of the compound assessed as decomposition at pH 10 measured upto 24 hrs; assay type: physicochemical; conditions: buffer, pH 10, 24 h
[5] = Chemical stability of the compound assessed as decomposition at pH 1 measured upto 24 hrs; assay type: physicochemical; conditions: buffer, pH 1, 24 h
[6] = Chemical stability of the compound assessed as decomposition at pH 7 measured upto 24 hrs; assay type: physicochemical; conditions: buffer, pH 7, 24 h
[7] = Permeability across apical to basolateral side human Caco-2 cells incubated for 2 hrs measured by LC/MS/MS analysis; assay type: ADME, cell-based; conditions: caco-2, 2 h
[8] = Metabolic stability in cryopreserved rat liver hepatocytes at 10 uM incubated upto 4 hrs by LC/MS/MS analysis; assay type: ADME, cell-based, Hepatocyte
[9] = Metabolic stability in cryopreserved dog liver hepatocytes at 10 uM incubated upto 4 hrs by LC/MS/MS analysis; assay type: ADME, cell-based, Canis lupus familiaris, Hepatocyte
[10] = Metabolic stability in dog liver microsomes at pH 7.4 in presence of NADPH/UDPGA by LC/MS/MS analysis; assay type: ADME, Canis lupus familiaris, Microsome
[11] = Metabolic stability in rat liver microsomes at pH 7.4 in presence of NADPH/UDPGA by LC/MS/MS analysis; assay type: ADME, Microsome
[12] = molecular target: T1, Alpha-2B adrenergic receptor (Homo sapiens, UniProt P18089); test: Antagonist activity at human recombinant adrenergic alpha2B receptor expressed in CHO cell treated with compound for 5 mins followed by norepinephrine measured for 50 secs by microtitre plate method; assay type: functional, cell-based
T1 sequence (P18089 whole entry): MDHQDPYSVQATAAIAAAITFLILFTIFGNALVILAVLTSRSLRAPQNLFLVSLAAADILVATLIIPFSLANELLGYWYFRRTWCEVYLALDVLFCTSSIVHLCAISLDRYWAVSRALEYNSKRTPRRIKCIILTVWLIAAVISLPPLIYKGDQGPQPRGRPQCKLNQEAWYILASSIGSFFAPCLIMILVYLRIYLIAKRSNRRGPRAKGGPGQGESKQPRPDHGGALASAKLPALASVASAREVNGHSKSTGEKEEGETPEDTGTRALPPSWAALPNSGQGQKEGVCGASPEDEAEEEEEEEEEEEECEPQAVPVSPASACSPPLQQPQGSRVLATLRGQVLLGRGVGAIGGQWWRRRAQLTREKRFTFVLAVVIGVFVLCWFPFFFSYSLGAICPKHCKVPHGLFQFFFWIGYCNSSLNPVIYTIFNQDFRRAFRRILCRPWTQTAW

[13] = molecular target: Voltage-dependent L-type calcium channel subunit alpha-1C (Homo sapiens, UniProt Q13936); test: Inhibition of human Cav1.2 channel; assay type: toxicity
[14] = Plasma protein binding in monkey plasma assessed as unbound fraction by equilibrium dialysis base LC-MS/MS analysis; assay type: ADME, cell-free, Macaca mulatta; conditions: rhesus monkey
[15] = Stability of the compound assessed as no adsorption to the sterile filter at pH 7.4 in 0.9% NaCl by measuring feasibility of sterilization at 121 degC for 15 mins using HPLC analysis; assay type: physicochemical; conditions: buffer
[16] = Chemical stability of the compound at pH 7 measured upto 7 days; assay type: physicochemical; conditions: buffer, pH 7, 168 h; time < 7 day
[17] = Clearance in Wistar rat plasma 0.3 mg/kg, iv measured upto 24 hrs by LC-MS/MS analysis; assay type: ADME, organism-based; conditions: in vivo
[18] = Volume of distribution at steady state in dog plasma 0.3 mg/kg, iv measured 0.033 to 24 hrs by LC-MS/MS analysis; assay type: ADME, organism-based, Canis lupus familiaris; conditions: time 0.033-24 hrs, read-out: Vdss
[19] = molecular target: Voltage-gated inwardly rectifying potassium channel KCNH2 (Homo sapiens, UniProt Q12809); test: Inhibition of hERG by electrode whole cell voltage clamp method; assay type: toxicity
Chain of Voltage-gated inwardly rectifying potassium channel KCNH2 (Q12809 whole entry): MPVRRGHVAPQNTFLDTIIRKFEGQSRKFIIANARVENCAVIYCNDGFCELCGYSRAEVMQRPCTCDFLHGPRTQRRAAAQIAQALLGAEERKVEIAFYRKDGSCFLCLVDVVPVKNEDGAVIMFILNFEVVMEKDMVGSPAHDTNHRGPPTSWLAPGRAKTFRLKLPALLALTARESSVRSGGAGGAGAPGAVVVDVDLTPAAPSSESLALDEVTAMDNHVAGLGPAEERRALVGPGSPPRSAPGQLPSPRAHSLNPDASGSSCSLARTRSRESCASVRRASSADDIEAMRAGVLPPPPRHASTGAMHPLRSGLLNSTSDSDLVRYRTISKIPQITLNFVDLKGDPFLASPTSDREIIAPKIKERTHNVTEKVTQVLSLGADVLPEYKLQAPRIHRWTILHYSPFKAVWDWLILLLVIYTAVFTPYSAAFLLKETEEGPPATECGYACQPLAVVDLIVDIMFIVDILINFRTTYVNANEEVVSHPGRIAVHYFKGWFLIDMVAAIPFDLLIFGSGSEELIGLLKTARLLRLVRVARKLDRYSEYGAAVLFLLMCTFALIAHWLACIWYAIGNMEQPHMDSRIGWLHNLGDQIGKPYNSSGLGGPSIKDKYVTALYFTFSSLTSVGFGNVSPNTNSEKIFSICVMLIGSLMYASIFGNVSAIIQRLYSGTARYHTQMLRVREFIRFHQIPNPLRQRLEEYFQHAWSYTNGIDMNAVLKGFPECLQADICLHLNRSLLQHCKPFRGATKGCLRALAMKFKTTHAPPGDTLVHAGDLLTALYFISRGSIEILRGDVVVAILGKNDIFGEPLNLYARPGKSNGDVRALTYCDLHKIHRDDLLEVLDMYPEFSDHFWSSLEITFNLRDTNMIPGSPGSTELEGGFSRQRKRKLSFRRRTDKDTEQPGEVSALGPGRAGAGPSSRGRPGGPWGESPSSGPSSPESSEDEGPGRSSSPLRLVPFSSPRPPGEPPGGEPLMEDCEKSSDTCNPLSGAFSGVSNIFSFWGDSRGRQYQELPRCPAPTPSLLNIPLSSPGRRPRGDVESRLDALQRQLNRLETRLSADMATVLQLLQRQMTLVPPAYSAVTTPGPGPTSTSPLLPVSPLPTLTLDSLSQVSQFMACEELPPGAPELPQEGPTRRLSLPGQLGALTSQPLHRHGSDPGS

[20] = Chemical stability of the compound in 0.9% NaCl at pH 7.4 measured for 13 week at 40 degC; assay type: physicochemical; conditions: buffer, pH 7.4, 2184 h; time 13 weeks
[21] = Chemical stability of the compound in 0.9% NaCl at pH 7.4 measured upto 1 week at 90 degC; assay type: physicochemical; conditions: buffer, pH 7.4, 168 h; time < 1 weeks
Cytochrome P450 1A2 [22] = molecular target: T2, Cytochrome P450 1A2 (Homo sapiens, UniProt P05177); test: Inhibition of human liver microsome CYP1A2 at 0.6 to 20 uM measured by LC/MS/MS analysis; assay type: ADME; conditions: microsomes, dose 0.6-20 µM
T2 sequence (P05177 whole entry): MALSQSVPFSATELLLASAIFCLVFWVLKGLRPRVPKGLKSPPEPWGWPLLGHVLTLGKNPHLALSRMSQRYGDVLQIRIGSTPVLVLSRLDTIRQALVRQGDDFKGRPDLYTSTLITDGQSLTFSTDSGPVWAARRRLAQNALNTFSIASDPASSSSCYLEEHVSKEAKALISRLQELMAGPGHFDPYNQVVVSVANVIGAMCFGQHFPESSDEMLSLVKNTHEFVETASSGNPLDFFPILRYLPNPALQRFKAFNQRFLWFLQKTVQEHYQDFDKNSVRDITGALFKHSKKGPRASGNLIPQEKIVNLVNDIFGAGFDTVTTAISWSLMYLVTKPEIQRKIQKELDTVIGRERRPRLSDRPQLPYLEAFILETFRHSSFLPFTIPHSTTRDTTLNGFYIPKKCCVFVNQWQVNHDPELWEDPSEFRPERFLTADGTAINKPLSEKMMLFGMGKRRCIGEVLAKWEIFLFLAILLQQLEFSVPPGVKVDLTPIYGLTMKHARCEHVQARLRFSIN

[23] = Plasma protein binding in rat plasma assessed as unbound fraction by equilibrium dialysis base LC-MS/MS analysis; assay type: ADME, cell-free
[24] = Chemical stability of the compound at pH 1 measured upto 7 days; assay type: physicochemical; conditions: buffer, pH 1, 168 h; time < 7 day
[25] = Plasma protein binding in human plasma assessed as unbound fraction by equilibrium dialysis base LC-MS/MS analysis; assay type: ADME, cell-free
[26] = Plasma protein binding in dog plasma assessed as unbound fraction by equilibrium dialysis base LC-MS/MS analysis; assay type: ADME, cell-free, Canis lupus familiaris
[27] = Mean residence time in Wistar rat plasma 0.3 mg/kg, iv measured upto 24 hrs by LC-MS/MS analysis; assay type: ADME, organism-based; conditions: in vivo
[28] = Chemical stability of the compound at pH 10 measured upto 7 days; assay type: physicochemical; conditions: buffer, pH 10, 168 h; time < 7 day
Cytochrome P450 3A4 [29] = molecular target: T3, Cytochrome P450 3A4 (Homo sapiens, UniProt P08684); test: Induction of human hepatocyte CYP3A4 treated upto 211 uM for 48 hrs by measuring mRNA expression using delta delta Ct method; assay type: ADME, cell-based; conditions: hepatocytes
T3 sequence (P08684 whole entry): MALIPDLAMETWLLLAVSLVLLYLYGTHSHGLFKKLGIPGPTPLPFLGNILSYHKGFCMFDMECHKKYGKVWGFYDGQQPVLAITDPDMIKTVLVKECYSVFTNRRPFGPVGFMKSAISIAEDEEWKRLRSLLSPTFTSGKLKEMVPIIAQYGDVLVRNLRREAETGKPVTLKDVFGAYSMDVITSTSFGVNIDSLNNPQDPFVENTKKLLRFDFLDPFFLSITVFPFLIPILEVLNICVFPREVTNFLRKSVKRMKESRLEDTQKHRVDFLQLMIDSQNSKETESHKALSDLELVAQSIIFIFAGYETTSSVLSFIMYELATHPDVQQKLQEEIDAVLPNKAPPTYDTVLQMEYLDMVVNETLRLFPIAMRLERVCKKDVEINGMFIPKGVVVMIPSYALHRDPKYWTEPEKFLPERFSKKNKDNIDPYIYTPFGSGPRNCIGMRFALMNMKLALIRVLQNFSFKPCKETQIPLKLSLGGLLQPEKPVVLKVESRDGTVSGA

Cytochrome P450 2D6 = Cytochrome P450 2D6 (Homo sapiens, UniProt P10635); test: Inhibition of human liver microsome CYP2D6 at 0.6 to 20 uM measured by LC/MS/MS analysis; assay type: ADME; conditions: microsomes, dose 0.6-20 µM
Chain of Cytochrome P450 2D6 (P10635 whole entry): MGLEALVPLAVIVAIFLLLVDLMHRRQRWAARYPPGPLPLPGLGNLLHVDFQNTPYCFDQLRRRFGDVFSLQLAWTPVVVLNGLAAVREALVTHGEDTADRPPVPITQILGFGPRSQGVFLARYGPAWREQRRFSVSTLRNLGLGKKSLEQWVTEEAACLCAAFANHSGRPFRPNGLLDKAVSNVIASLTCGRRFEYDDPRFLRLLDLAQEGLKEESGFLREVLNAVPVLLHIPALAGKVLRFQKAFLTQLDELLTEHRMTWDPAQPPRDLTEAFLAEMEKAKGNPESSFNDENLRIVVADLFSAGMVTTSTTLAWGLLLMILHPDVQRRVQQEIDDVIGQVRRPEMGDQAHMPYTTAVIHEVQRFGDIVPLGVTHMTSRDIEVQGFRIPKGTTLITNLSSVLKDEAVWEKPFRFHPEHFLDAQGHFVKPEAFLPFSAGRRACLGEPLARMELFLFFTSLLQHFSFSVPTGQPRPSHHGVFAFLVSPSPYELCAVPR

Cytochrome P450 2C8 = molecular target: T4, Cytochrome P450 2C8 (Homo sapiens, UniProt P10632); test: Inhibition of human liver microsome CYP2C8 at 0.6 to 20 uM measured by LC/MS/MS analysis; assay type: ADME; conditions: microsomes, dose 0.6-20 µM
T4 sequence (P10632 whole entry): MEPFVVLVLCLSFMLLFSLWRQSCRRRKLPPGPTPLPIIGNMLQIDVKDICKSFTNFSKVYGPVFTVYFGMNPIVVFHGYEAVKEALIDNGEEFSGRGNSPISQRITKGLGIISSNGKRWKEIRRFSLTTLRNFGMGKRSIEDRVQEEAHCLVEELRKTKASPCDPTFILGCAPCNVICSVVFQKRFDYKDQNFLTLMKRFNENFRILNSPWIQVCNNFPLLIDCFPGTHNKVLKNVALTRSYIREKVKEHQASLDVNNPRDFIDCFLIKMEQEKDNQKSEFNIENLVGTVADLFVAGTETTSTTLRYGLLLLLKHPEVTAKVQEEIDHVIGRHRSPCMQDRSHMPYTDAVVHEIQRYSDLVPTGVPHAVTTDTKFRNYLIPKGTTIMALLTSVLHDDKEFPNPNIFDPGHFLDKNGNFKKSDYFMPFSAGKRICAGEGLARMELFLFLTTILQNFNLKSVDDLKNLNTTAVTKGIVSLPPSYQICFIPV

[30] = molecular target: Sodium channel protein type 5 subunit alpha (Homo sapiens, UniProt Q14524); test: Inhibition of human Nav1.5 channel; assay type: toxicity
Chain of Sodium channel protein type 5 subunit alpha (Q14524 whole entry): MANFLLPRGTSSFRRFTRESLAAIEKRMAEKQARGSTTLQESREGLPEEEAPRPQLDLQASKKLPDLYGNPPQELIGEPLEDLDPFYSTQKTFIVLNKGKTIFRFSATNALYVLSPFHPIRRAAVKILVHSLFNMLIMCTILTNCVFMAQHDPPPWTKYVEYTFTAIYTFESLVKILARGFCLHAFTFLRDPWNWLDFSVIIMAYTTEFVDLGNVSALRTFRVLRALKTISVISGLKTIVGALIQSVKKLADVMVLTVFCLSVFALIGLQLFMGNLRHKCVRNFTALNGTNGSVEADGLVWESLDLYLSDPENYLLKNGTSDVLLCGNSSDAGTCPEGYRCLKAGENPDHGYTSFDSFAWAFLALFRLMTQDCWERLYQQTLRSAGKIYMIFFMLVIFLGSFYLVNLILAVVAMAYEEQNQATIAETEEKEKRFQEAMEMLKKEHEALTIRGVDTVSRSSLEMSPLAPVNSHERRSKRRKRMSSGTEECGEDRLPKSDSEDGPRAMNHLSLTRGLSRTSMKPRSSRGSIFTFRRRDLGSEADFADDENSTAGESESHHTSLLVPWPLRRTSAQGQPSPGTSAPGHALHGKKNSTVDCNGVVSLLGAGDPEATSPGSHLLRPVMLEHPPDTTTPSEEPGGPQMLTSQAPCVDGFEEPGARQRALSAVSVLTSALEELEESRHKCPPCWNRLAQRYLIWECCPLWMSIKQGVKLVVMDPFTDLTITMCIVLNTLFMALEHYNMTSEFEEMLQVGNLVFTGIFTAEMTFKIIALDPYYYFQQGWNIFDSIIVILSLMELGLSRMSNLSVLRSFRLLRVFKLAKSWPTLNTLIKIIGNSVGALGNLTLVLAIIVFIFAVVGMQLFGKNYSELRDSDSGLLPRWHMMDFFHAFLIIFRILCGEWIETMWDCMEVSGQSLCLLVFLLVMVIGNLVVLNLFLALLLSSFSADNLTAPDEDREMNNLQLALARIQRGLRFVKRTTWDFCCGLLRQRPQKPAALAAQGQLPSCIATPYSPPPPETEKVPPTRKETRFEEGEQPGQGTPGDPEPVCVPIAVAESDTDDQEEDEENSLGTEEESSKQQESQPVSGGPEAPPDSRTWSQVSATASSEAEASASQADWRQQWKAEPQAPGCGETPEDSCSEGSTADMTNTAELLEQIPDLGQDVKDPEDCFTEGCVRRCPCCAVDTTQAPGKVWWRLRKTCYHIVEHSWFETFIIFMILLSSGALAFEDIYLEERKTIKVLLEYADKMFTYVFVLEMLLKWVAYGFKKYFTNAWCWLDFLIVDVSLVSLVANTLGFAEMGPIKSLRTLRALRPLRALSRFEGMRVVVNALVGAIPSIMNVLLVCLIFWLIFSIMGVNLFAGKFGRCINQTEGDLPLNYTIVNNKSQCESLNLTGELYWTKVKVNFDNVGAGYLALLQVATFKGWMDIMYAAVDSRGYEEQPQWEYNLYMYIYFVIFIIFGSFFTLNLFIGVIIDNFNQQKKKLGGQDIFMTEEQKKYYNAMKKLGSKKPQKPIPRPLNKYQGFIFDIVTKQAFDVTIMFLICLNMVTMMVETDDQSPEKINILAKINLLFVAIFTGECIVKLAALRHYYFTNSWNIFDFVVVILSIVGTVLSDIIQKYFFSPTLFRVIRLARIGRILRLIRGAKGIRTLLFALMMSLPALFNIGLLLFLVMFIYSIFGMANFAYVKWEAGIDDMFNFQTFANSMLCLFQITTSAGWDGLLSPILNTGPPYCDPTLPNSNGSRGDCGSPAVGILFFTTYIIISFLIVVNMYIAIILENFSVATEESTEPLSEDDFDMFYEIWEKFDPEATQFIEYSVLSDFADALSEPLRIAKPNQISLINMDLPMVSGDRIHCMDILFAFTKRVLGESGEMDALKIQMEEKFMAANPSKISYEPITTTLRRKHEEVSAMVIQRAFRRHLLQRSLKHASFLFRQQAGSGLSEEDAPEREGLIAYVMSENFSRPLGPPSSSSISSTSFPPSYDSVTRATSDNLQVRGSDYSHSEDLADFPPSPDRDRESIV

Cytochrome P450 3A4 [31] = molecular target: T3, Cytochrome P450 3A4; test: Inhibition of human liver microsome CYP3A4 at 0.6 to 20 uM measured by LC/MS/MS analysis; assay type: ADME; conditions: microsomes, dose 0.6-20 µM
Cytochrome P450 2C9 = Cytochrome P450 2C9 (Homo sapiens, UniProt P11712); test: Inhibition of human liver microsome CYP2C9 at 0.6 to 20 uM measured by LC/MS/MS analysis; assay type: ADME; conditions: microsomes, dose 0.6-20 µM
Chain of Cytochrome P450 2C9 (P11712 whole entry): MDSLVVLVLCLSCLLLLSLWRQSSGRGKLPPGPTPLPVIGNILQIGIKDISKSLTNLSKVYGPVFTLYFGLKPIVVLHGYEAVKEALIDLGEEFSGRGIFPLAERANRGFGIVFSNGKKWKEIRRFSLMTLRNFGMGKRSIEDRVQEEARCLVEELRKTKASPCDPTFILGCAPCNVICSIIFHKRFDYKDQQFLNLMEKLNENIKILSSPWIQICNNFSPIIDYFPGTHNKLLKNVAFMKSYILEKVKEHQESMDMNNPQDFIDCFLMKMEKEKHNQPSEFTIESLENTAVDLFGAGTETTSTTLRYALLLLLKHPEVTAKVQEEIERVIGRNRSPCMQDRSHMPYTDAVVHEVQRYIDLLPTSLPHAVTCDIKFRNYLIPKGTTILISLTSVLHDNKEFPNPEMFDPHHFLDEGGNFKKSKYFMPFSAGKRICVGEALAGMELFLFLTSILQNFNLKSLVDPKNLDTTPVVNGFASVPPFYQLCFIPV

Cytochrome P450 1A2 [32] = molecular target: T2, Cytochrome P450 1A2; test: Induction of human hepatocyte CYP1A2 treated upto 211 uM for 48 hrs by measuring mRNA expression using delta delta Ct method; assay type: ADME, cell-based; conditions: hepatocytes
[33] = Clearance in dog plasma 0.3 mg/kg, iv measured 0.033 to 24 hrs by LC-MS/MS analysis; assay type: ADME, organism-based, Canis lupus familiaris; conditions: time 0.033-24 hrs
[34] = Volume of distribution at steady state in Wistar rat plasma 0.3 mg/kg, iv measured upto 24 hrs by LC-MS/MS analysis; assay type: ADME, organism-based; conditions: in vivo
[35] = Stability of the compound assessed as no adsorption to the sterile filter at pH 7.4 in 0.9% NaCl by measuring feasibility of sterilization using HPLC analysis; assay type: physicochemical; conditions: buffer

## Cc1noc(C)c1-n1cnc2cc(N)ccc21
[1]
  Activity: Toxic

## COc1ccccc1-n1cnc2cc(NC(C)=O)ccc21
[2]
  solubility thermodynamic at 24 h: 300 µg/mL (≈ 1070 µM)

## CNc1cc[n+](CC(=O)Nc2cnc3c(c2)ncn3-c2ccccc2OC)cc1.O=C[O-]
[1]
  Activity: Toxic

## COc1ccccc1-n1cnc2cc(NC(=O)CCc3ccccn3)ccc21
[2]
  solubility thermodynamic at 24 h: 20 µg/mL (≈ 53.7 µM)

## CNc1cc[n+](CCNC(=O)c2ccc3c(c2)ncn3-c2c(C)noc2C)cc1.O=C[O-]
[1]
  Activity: Non-Toxic

## CNc1cc[n+](CC(=O)Nc2cccc(C)c2)cc1.O=C[O-]
[1]
  Activity: Non-Toxic

## CNc1ccncc1
[1]
  Activity: Non-Toxic

## Cc1noc(C)c1N
[1]
  Activity: Non-Toxic

## CNc1cc[n+](CC(=O)Nc2ccc3c(c2)ncn3-c2c(C)noc2C)cc1.O=C[O-]
[3]
  Stability: Stable
[4]
  Stability: Stable
[5]
  Stability: Stable
[6]
  Stability: Stable
[7]
  permeability: 0.36 ×10⁻⁶ cm/s
[8]
  Stability: Stable
[1]
  Activity: Toxic
[9]
  Stability: Stable
[10]
  Stability: Stable
[11]
  Stability: Stable

## CNc1cc[n+](CC(Nc2ccc3c(c2)ncn3-c2c(C)noc2C)C(F)(F)F)cc1 (racemic)
[12]
  pIC50: 5.15

## CNc1cc[n+](CCNC(=O)c2ccn3c(-c4c(C)noc4C)cnc3c2)cc1.[Cl-]
[13]
  inhibition (INH): Not Active
[14]
  Fu: 92%
[15]
  Stability: Stable
[16]
  Stability: Stable
[17]
  CL: 71.7 mL/min/kg
[18]
  Vd: 0.6 L/kg
[19]
  inhibition (INH): Not Active
[20]
  Stability: Stable
[21]
  Stability: Stable
Cytochrome P450 1A2 [22]
  inhibition (INH): Not Active
[23]
  Fu: 79%
[24]
  Stability: Stable
[25]
  Fu: 85%
[7]
  permeability: 0.3 ×10⁻⁶ cm/s
[26]
  Fu: 82%
[1]
  Activity: Non-Toxic
[27]
  MRT: 6 min
[28]
  Stability: Stable
Cytochrome P450 3A4 [29]
  Activity: Not Active
Cytochrome P450 2D6
  inhibition (INH): Not Active
Cytochrome P450 2C8
  inhibition (INH): Not Active
[30]
  inhibition (INH): Not Active
Cytochrome P450 3A4 [31]
  inhibition (INH): Not Active
Cytochrome P450 2C9
  inhibition (INH): Not Active
Cytochrome P450 1A2 [32]
  Activity: Not Active
[33]
  clearance: 26.7 mL/min/kg
[34]
  Vdss: 0.5 L/kg
[35]
  Stability: Stable
